Experimental data from PMC12814185, “Receptor-Mediated Shuttling of a D‑Amino Acid Peptide Achieves High Nanomolar Cytosolic Concentrations” (Journal of the American Chemical Society, 2025).
Where a SMILES comes first, the peptide text is derived from it. Bridges are numbered along the chain shown (N, C = ends). Roman numbers before positions name the chains, in order. Triazole bridges read from a SMILES are 1,4-linked. Where no end group is shown, it is not given here. Side-chain parts run from the residue outwards. [ ]: non-standard residue; d: D form. The star is where a group is joined. X2 = CN1C(=C/C=C/C=C/C2=[N+](CCCCCC(=O)*)c3ccc(S(=O)(=O)[O-])cc3C2(C)C)C(C)(C)c2cc(S(=O)(=O)O)ccc21; X1 = CN1C(=CC=CC=CC2=[N+](CCCCCC(=O)*)c3ccc(S(=O)(=O)[O-])cc3C2(C)C)C(C)(C)c2cc(S(=O)(=O)O)ccc21; Lys(N3) = [N-]=[N+]=NCCCC[C@H](N)C(=O)O; Cit = NC(=O)NCCC[C@H](N)C(=O)O; d(hCys) = N[C@H](CCS)C(=O)O; PEG3 = NCCOCCOCCOCCC(=O)O; Pra = C#CC[C@H](N)C(=O)O

Assays:
Type in all cases: cell-based
HEK293 cells = assay: Live cell fluorescence microscopy of peptide internalization, cells without CMKLR1; conditions: 1 μM Cy5-labeled peptide, 6 h
Description: 2 Internalization of cyclic chemerin-9 conjugates. Live cell fluorescence microscopy of HEK293 and HEK293 cells stably expressed CMKLR1-eYFP. Cells were incubated with 1 μM Cy5-labeled peptide for 6 h before imaging. Blue = Hoechst33342, yellow = CMKLR1-eYFP, magenta = Cy5-peptide, scale bar ≙ 10 μm. […]
Salt Solution (HBSS, Biowest), pH 7.5) for 1 h. […]
Experiments were performed in technical duplicates and at least […]
HEK293 and HEK293_CMKLR1-eYFP cells were seeded at 15,000 cells per well into poly-ᴅ-lysine coated 96-well plates (black µCLEAR, Greiner). The next day, dilutions of the Cy5 -labeled peptides or Nutlin-3a […]
Cells were then washed and a resazurin-based cell viability […]
assay was performed. […]
Experiments […]
were performed in technical triplicates and at least twice.
Peptide internalization was evaluated by fluorescence microscopy. HEK293 and stably transfected […]
microscopy slides (ibidi). The next day, 1 µM Cy5-labeled peptides in cell culture medium were added to the cells and incubated for 6 h.
FluoroBriteTM DMEM (Gibco) with 10% FBS, 25 mM HEPES (pH 7.4) before imaging on an AxioVision Observer.Z1 microscope equipped with an apotome imaging system, an HXP120C light source, and a C-Apochromat 63x/1.20 W objective. All shown microscopy images are representative of at least two

[1] = biological target: T1, NanoLuc-MDM2 in HEK293_CMKLR1-eYFP cells (Homo sapiens, UniProt Q00987); assay: Intracellular Cy5-PMIγ/NanoLuc-MDM2 BRET, cells with CMKLR1; conditions: for displacement from MDM2 by 10 μM nutlin-3a (kinetic BRET): 72 h internalization; for BRET between NanoLuc-MDM2 and Cy5-labeled peptide: CMKLR1-expressing cells, 1 or 10 μM; for receptor-specific BRET under uptake competition: coincubation with 30 μM unlabeled peptide 1
T1 construct: host or cells: HEK293 and HEK293_CMKLR1-eYFP
Description: (§1) 4 Intracellular bioluminescence resonance energy transfer (BRET) between NanoLuc-MDM2 and Cy5-labeled PMIγ in living cells. (A) Peptides were incubated on HEK293 and HEK293_CMKLR1-eYFP cells for 72 h before BRET was measured. To evaluate the receptor-specific effect, ΔBRET was calculated by subtracting netBRET of cells without CMKLR from netBRET from cells with CMKLR1. Mean ± SEM from three independent experiments performed in duplicate. […] (B) Calculated ΔBRET values after different incubation times of peptides on the cells. (C, D) Same as panels (A) and (B), but peptide uptake was competed by coincubation with 30 μM peptide 1 (N3-cC9). (E, F) Displacement of PMIγ peptides from MDM2 after 72 h internalization in a kinetic BRET measurement. After 3 min, 10 μM of the small molecule MDM2 antagonist Nutlin-3a was added and the loss of NanoLuc-MDM2/Cy5-PMIγ BRET was observed. Mean (bold line) ± SEM (dotted lines) from three independent experiments is shown. […]
Intracellular Cy5-PMIγ/NanoLuc-MDM2 bioluminescence resonance energy transfer […]
HEK293 and stably transfected HEK293_CMKLR1-eYFP cells were seeded at 15,000 cells per well into poly-ᴅ-lysine coated 96-well plates (white Nunc MicroWell, Thermo). The next day, cells in each well were transfected with 0.1 µg Transfection Carrier DNA (Promega) and 0.001 µg NanoLuc-MDM2 fusion vector (Promega) using Lipofectamine 3000 (Invitrogen) according to manufactures instructions. Cells were incubated overnight, washed, allowed to recover for 4 h, washed again and dilutions of the Cy5-labeled peptides were added to the cells and incubated for 24,48 or 72 h. For uptake competition experiments, 30 µM of the unlabeled peptide 1 (N3-cC9) were additionally added to each well. After the incubation, excess peptide was washed away thoroughly, and cells were incubated for 4 h before the cell culture medium was replaced by 50 µl Fluorobrite DMEM with Nano-Glo Live Cell Reagent (Promega). After 10 min incubation, luminescence was measured in a Spark multimode plate reader (Tecan), and BRET ratio was calculated by […]
dividing the Cy5-signal (670±30 nm) by the NanoLuc signal (450±20 nm). netBRET was calculated by subtracting the BRET ratio from cells which were incubated without peptide. To calculate the CMKLR1-specific effect, ΔBRET was calculated by subtracting the netBRET value obtained in cells without CMKLR1 from netBRET obtained in cells with CMKLR1. After the initial readout, a kinetic BRET displacement was performed with the same cells. For this, luminescence was measured every 22 s. After 3 min, 10 µM of the small molecule MDM2 antagonist Nutlin-3a (Sigma) was added to the cells and BRET was measured for another 7 min. Experiments were performed in technical duplicates and three independent times. Non-linear regression and statistical analysis were performed using Prism 10 (GraphPad).
Analogous to the intracellular Cy5-PMIγ/NanoLuc-MDM2 BRET experiment, HEK293 and HEK293_CMKLR1-eYFP cells were seeded and transfected with 0.09 µg Transfection Carrier DNA, 0.01 µg […]
were then incubated with dilutions of unlabeled PMIγ -peptides for 72 h or with Nutlin-3a for 24 h. During the last 30 min of the incubation, HaloTag TMR Ligand (Promega) was added to the cells to fluorescently label the p53-HaloTag fusion proteins in the cells. Cells were then washed thoroughly, incubated for 4 h in full cell culture medium without peptides, and the cell culture medium was then replaced by 50 µl Fluorobrite DMEM with Nano-Glo Live Cell Reagent. After 10 min incubation, luminescence was measured, and BRET ratio was calculated by dividing the TMR-signal (600±50 nm) by the NanoLuc signal (450±20 nm). netBRET was calculated and normalized to cells without peptide (100%) and cells which were not label ed with HaloTag TMR Ligand (0%). Experiments were performed in technical duplicates and at least twice. Non-linear regression and statistical analysis were performed using Prism 10 (GraphPad).

[2] = biological target: T2, NanoLuc-MDM2 in HEK293 cells (Homo sapiens, UniProt Q00987); assay: Intracellular Cy5-PMIγ/NanoLuc-MDM2 BRET, cells without CMKLR1; conditions: cells without CMKLR1, 72 h
T2 construct: host or cells: HEK293 and HEK293_CMKLR1-eYFP
Description: as §1, with “(N3-cC9).” for “(N3-cC9). (E, F) Displacement of PMIγ peptides from MDM2 after 72 h internalization in a kinetic BRET measurement. After 3 min, 10 μM of the small molecule MDM2 antagonist Nutlin-3a was added and the loss of NanoLuc-MDM2/Cy5-PMIγ BRET was observed. Mean (bold line) ± SEM (dotted lines) from three independent experiments is shown.”
HEK293 and stably transfected HEK293_CMKLR1-eYFP cells were seeded at 15,000 cells per well into poly-ᴅ-lysine coated 96-well plates (white Nunc MicroWell, Thermo). […] After 10 min incubation, luminescence was measured in a Spark multimode plate reader (Tecan), and BRET ratio was calculated by […]
dividing the Cy5-signal (670±30 nm) by the NanoLuc signal (450±20 nm). netBRET was calculated by subtracting the BRET ratio from cells which were incubated without peptide. To calculate the CMKLR1-specific effect, ΔBRET was calculated by subtracting the netBRET value obtained in cells without CMKLR1 from netBRET obtained in cells with CMKLR1. After the initial readout, a kinetic BRET displacement was performed with the same cells. […]

T1 sequence (Q00987 whole entry): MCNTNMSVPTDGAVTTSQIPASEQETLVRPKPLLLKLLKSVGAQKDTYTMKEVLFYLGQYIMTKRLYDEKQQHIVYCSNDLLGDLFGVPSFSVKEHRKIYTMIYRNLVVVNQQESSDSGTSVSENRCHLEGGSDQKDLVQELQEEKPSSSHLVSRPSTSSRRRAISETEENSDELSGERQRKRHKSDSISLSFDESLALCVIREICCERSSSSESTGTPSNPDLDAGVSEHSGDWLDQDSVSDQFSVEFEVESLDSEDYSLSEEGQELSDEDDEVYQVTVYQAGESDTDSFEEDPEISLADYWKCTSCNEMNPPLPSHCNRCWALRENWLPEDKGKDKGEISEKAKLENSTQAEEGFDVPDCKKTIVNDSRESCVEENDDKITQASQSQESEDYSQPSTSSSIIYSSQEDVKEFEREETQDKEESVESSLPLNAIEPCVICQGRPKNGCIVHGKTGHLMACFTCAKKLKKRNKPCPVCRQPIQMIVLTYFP
T2 sequence (Q00987 whole entry): as above

Row | Molecule | internalization (HEK293 cells) | displacement from MDM2 by 10 μM nutlin-3a (kinetic BRET) ([1]; 1 μM extracellular peptide) | BRET between NanoLuc-MDM2 and Cy5-labeled peptide ([1]; 72 h) | receptor-specific BRET under uptake competition [1] | BRET between NanoLuc-MDM2 and Cy5-labeled peptide [2] | loss of BRET after 10 μM nutlin-3a, compared with 2Cy ([1]; 1 μM extracellular peptide, 72 h) | ΔBRET (netBRET with CMKLR1 minus without) ([1]; 24, 48 and 72 h)
1 | CC(=O)N[C@@H](CCCCn1cc(C[C@H](NC(=O)CCOCCOCCOCCNC(=O)[C@H](CCCNC(N)=O)NC(=O)[C@@H](NC(=O)[C@H](CCC(=O)O)NC(=O)CNC(=O)CNC(=O)[C@@H](CCCNC(=N)N)NC(=O)[C@@H](CC(C)C)NC(=O)[C@@H](CC(C)C)NC(=O)[C@@H](C)NC(=O)[C@@H](CCC(=O)O)NC(=O)[C@@H](Cc2ccccc2)NC(=O)[C@@H](C)NC(=O)[C@@H](CC(C)C)NC(=O)[C@H]2CCCN2C(=O)[C@@H](Cc2c[nH]c3ccccc23)NC(=O)[C@@H](Cc2c[nH]c3ccccc23)NC(=O)[C@@H](CC(=O)O)NC(=O)CCOCCOCCOCCNC(=O)CCCCC[N+]2=C(/C=C/C=C/C=C3N(C)c4ccc(S(=O)(=O)O)cc4C3(C)C)C(C)(C)c3cc(S(=O)(=O)[O-])ccc32)C(C)C)C(N)=O)nn1)C(=O)N[C@@H](Cc1ccc(O)cc1)C(=O)N[C@@H](Cc1ccccc1)C(=O)N1CCC[C@H]1C(=O)N[C@@H]1CCSSC[C@@H](C(=O)O)NC(=O)[C@H](Cc2ccccc2)NC(=O)[C@H](C)NC(=O)[C@H](Cc2ccccc2)NC(=O)[C@H](CCC(N)=O)NC1=O [2Cy] (I: {X2-PEG3}-[dD][dW][dW][dP][dL][dA][dF][dE][dA][dL][dL][dR]GGEV[Cit][PEG3][Pra]-NH2 / II: Ac-[Lys(N3)]YFP[d(hCys)]QFAFC-OH; triazole I:19-II:1; disulfide II:5-II:10) | did not internalize | seen only in CMKLR1-expressing cells | significantly elevated BRET | almost no receptor-specific BRET was detected | only a minor signal |  | 
2 | I: GSVSHHHHHHGGHHHH[PEG3][dK]([PEG3-X1])[dD][dW][dW][dP][dL][dA][dF][dE][dA][dL][dL][dR]GEV[Cit][PEG3][Pra]-NH2 / II: Ac-[Lys(N3)]YFP[d(hCys)]QFAFC-OH (triazole I:36-II:1; disulfide II:5-II:10) [3Cy] | very faint intracellular signals | seen only in CMKLR1-expressing cells | significantly elevated BRET | almost no receptor-specific BRET was detected | strong BRET at 10 μM | larger loss of BRET | slightly higher signal compared to 2Cy
